These results are taken from patent US11149135B2, “Application of cyclodextrins (CDS) for remediation of perfluoroalkyl substances (PFASS)” (THE FLORIDA INTERNATIONAL UNIVERSITY BOARD OF TRUSTEES, priority 2017, dated 2021).

The conditions of data set [1]: β-CD:legacy PFAS; from Wilson and Verrall, Langmuir; cited from earlier work.
The test system of data set [2] is zebrafish (Danio rerio) embryo. Briefly: Zebrafish embryo toxicity assay. Format: in vivo. An excerpt: To assess the potential of β-CD to attenuate the developmental and lethal effects of PFOA, zebrafish (Danio rerio) embryo are used as a toxicological model. Practical advantages of the zebrafish embryo system include ease of rearing and a high fecundity, as well as small (˜1 mm) and nearly transparent embryos, rapid (≤5-7 day) embryo development, and a fully sequenced genome. As such, the zebrafish embryo has been employed to look at a wide range of environmental contaminants in terms of acute and chronic toxicity. Acute toxicological endpoints (e.g., embryotoxicity, teratogenicity, neurotoxicity) which are readily accessible in the zebrafish embryo model are, furthermore, aligned with the reported health concerns associated with PFOA, and the system has, indeed, been used to evaluate toxicity of PFOA and related perfluorinated alkyl substances.
Perfluorooctanoic acid (PFOA, 96% purity) was purchased from Sigma-Aldrich. β-Cyclodextrin (β-CD, 98% purity) was purchased from Acros Organics. Both chemicals were used without further purification. Stock solutions of PFOA (7.25 mM, i.e., 3000 parts-per-million [ppm]), 1:1 β-CD:PFOA (β-CD: 7.25 mM, PFOA: 7.25 mM), and 2:1 β-CD:PFOA (β-CD: 14.50 mM, PFOA: 7.25 mM) were prepared with deionized water in polypropylene tubes. The solutions were sonicated until dissolution of the solids was achieved. A control solution of deionized water was also stored in a polypropylene tube. Stock solutions were subsequently diluted over a relevant range of concentrations for assessment of zebrafish embryo toxicity.
Adult zebrafish were maintained in 30-L tanks at 28° C. with 14 h:10 h light/dark cycle, and bred (from approximately 10-30 individuals) above 10-L tanks in mesh enclosures. Eggs were collected (from the bottom of tanks) within 1 h of the end of the dark cycle, and following collection and washing, transferred to plates containing E3 medium. Eggs containing dead, or obviously poor quality embryos, were removed. The remaining embryos were used, within ˜2 hour post-fertilization (hpf), for toxicity assays.
Zebrafish Embryo Toxicity Assay Assays were conducted in polypropylene 24-well plates (Evergreen Scientific, Los Angeles, Calif.) with five embryos (4- to 32-cell stage) per replicate, i.e., well (n=4), in E3 medium for a total of 20 zebrafish embryos per treatment/concentration. Embryos were exposed to a range of PFOA concentrations (30, 50, 100, 150, 200, 250 and 300 ppm) alone, and in 1:1 and 2:1 ratios with β-CD, and subsequently observed at 1, 2, 3, 4 and 7 days post-fertilization (dpf) with a dissecting light microscope to assess mortality and relevant developmental toxicity. Exposures and assessments were repeated several times, in preliminary studies, to determine relevant concentration levels for PFOA, and generally confirm results. Lethality was calculated as the concentration corresponding to 50% mortality (LC50); the LC50 values, and their 95% confidence intervals, were calculated via Probit Analysis in SPSS. In addition to lethality, inhibition of embryo development was morphometrically assessed based on the interocular distance between eyes (as a proxy for body size) of 7 dpf embryos (i.e., eleuthero-embryo stage) as measured using Olympus DP2-BSW imaging software. Apparent neurobehavioral effects were additionally measured as the percent of 7-dpf eleuthero-embryos displaying listing (i.e., falling to one side) behavior within a 30 s period (with shaking between each measurement to allow embryos to right themselves). Statistical Analyses
One-way analysis of variance (ANOVA) of the LC50 values, as well as the interocular distance and percent listing at 7 dpf, was performed in GraphPad Prism. The significance level was set at p=0.05.

The nature of data set [3]: 19F NMR association constants of β-CD:legacy PFAS complexes. Format: binding. The following applies: aqueous media, room temperature. The protocol:
A detailed comprehensive Nuclear Magnetic Resonance (NMR) spectral study of the complexation of PFASs to β-CD was conducted, Weiss-Errico and O'Shea, J. Hazardous Mat. 2017 329, 57-65, with highlights herein. […] Competition studies with adamantane-carboxylic acid and phenol confirmed the persistence of the β-CD:PFAS complex. The aqueous solution pH, ionic strength, and the presence of humic acid have only a modest influence on the β-CD:PFAS complexes. Table 2 gives the association constants for β-CD complexes with a sample of the PFASs studied, including perfluoroheptanoic acid (PFHpA), perfluorooctanoic acid (PFOA), perfluorononanoic acid (PFNA), perfluorooctane sulfonate (PFOS), and perfluorooctanesulfonamide (PFOSA).

Data set [4] is described as follows: 19F NMR β-CD:PFOA association constants in the presence and absence of HSA. Format: binding. The source says: The capacity or remediation in a human host as a therapeutic application is illustrated by the competitive binding between Human Serum Albumin (HSA) and β-CD for PFOA. Different spectroscopic techniques were employed to understand the interactions between HSA, PFOA, and β-CD. The association between PFOA and β-CD in the presence of HSA in water was characterized using ^19F NMR experiments. Changes in the ^19F chemical shift of PFOA titrated with β-CD were monitored to compare the host-guest association in the presence and absence of 35 μM HSA. The observed change in chemical shift of each fluorine peak varied differently as a function of β-CD concentration. […] The association constants for fluorine atoms closer to the PFOA carboxylate head group with β-CD are weaker in the presence of HSA, whereas the fluorine atoms towards the end of the alkyl chain (tail) experience a stronger interaction with β-CD in the presence of HSA. The 1:1 β-CD:PFOA association constant decreases in the presence of HSA likely due to the interaction of the carboxylate group of PFOA with HSA that weakens the PFOA association to β-CD.
NMR experiments were performed with a 400 MHz Bruker instrument with a quad probe (operating at 376.498 MHz for ^19F). Hexafluorobenzene was used as the internal standard with a chemical shift of −164.9 ppm.

Data set [5] in a line: Control experiments: interaction of internal standard with cyclodextrins. As to conditions: 1.44×10−3 M.
Protocol: The solution consisted of 50% D2O and 50% DI H2O, adjusted to pH 7 with 0.036 M NaOH. […] Each cyclodextrin (α-, β-, γ-) was added at various stoichiometric ratios and the solution was sonicated until dissolution of the CD was achieved.
Data set [6] has as its target Human Serum Albumin (HSA) (Homo sapiens, UniProt P02768). Nature of the data set: HSA fluorescence (steady state and lifetime): reversal of PFOA binding by β-CD.
Protocol: For the fluorescence spectroscopy experiments, stock solutions of PFOA (10 mM and 100 μM), β-CD (5 mM), and HSA (20 μM) were prepared with a 50 mM sodium phosphate buffer (pH 7.4) solution in polypropylene tubes
Steady state emission experiments were performed with a PC1 Fluorometer (ISS Inc, Champaign, Ill.). The excitation wavelength was 295 nm, and the emission spectra were recorded between 305 and 440 nm using 1 nm slit width for both excitation and emission. The emission spectra were corrected for the inner filter effect; however, the inner filter effect was insignificant at the HSA concentrations used in this study. Fluorescence lifetime experiments (frequency-resolved) were performed with a ChronoFD Fluorometer (ISS Inc, Champaign, Ill.). The excitation wavelength was 280 nm and 2,5-diphenyloxazole (PPO) was used as a lifetime reference. For both steady state and fluorescence lifetime experiments, the concentration of HSA was 10 βM. PFOA and β-CD were titrated into the sample at various concentrations.
Where [7] appears, read: 50 mM Phosphate Buffer (pH 7.4).
The mark [8] stands for this setting: 50 mM Phosphate Buffer (pH 7.4) with 35 μM HSA.

Chain of Human Serum Albumin (HSA) (P02768 25-609): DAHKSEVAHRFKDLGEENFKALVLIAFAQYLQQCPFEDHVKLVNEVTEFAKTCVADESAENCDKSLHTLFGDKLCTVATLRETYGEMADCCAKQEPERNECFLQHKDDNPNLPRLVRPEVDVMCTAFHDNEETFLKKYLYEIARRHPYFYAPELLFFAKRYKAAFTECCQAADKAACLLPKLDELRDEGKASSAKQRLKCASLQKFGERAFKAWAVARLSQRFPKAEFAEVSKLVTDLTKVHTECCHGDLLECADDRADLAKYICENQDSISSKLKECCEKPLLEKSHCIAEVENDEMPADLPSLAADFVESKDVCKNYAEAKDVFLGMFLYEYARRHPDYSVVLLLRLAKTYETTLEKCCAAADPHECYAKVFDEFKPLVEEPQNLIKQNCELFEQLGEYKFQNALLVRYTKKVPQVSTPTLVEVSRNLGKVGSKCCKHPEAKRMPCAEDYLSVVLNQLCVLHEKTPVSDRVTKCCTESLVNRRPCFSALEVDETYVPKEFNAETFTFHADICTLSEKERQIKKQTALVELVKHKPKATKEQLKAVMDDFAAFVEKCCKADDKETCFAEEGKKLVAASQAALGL

As to `O=C(O)C(F)(F)C(F)(F)C(F)(F)C(F)(F)C(F)(F)F` [PFHxA, perfluorohexanoic acid], the “Legacy PFAS Kassoc” value in data set [1] is on record as 2.35 +/− 0.46 × 10^4 M^−1.

In turn, `O=C(O)C(F)(F)C(F)(F)C(F)(F)C(F)(F)C(F)(F)C(F)(F)C(F)(F)F` [PFOA, perfluorooctanoic acid] came in with a 50% lethal concentration (LC50) in data set [2] (1 dpf, ppm PFOA) of 47.3±3.6 ppm. In data set [2] (7 dpf, surviving embryos at sub-lethal concentrations ≤50 ppm PFOA, pooled), this molecule displayed an interocular distance of 0.25±0.06 mm. Besides, in data set [2] (7 dpf, ≤50 ppm PFOA, pooled), the “percent of surviving embryos listing within a 30 second period” value was 96±9%. The “lethality at 24 hpf” value in data set [2] (PFOA concentrations above 100 ppm) is “all embryos dead”. In addition, the “embryos showing discernible deformities” value in data set [2] (by 7 dpf, bent spines and edemas) was approximately 5%. The hatching rates entry in data set [2] (surviving embryos, hatched by 3 dpf) is given as “unaffected”. Moreover, in data set [3] (1:1 β-CD:PFAS complex), the “K1:1 association constant” value was 5.00 ± 0.10 × 10^5 M^−1. The “K2:1 association constant” value in data set [3] (2:1 β-CD:PFAS complex) was 1.20 ± 0.50 × 10^3 M^−1. Besides, in data set [4] (setting [7]), the “K1:1 β-CD:PFOA” value is given as 4.16 ± 0.88 × 10^5 M^−1 and the “K2:1 β-CD:PFOA” value was 6.42 ± 1.78 × 10^2 M^−1. Further, in data set [4] (setting [8]), the “K1:1 β-CD:PFOA” value is 1.67 ± 0.33 × 10^5 M^−1 and the “K2:1 β-CD:PFOA” value is on record as 9.09 ± 1.27 × 10^2 M^−1.

In the case of `Fc1c(F)c(F)c(F)c(F)c1F` [hexafluorobenzene, Hexafluorobenzene], in data set [5], the interaction with cyclodextrins entry is given as “does not significantly interact with cyclodextrins”.

`OC[C@H]1O[C@@H]2O[C@H]3[C@H](O)[C@@H](O)[C@@H](O[C@H]4[C@H](O)[C@@H](O)[C@@H](O[C@H]5[C@H](O)[C@@H](O)[C@@H](O[C@H]6[C@H](O)[C@@H](O)[C@@H](O[C@H]7[C@H](O)[C@@H](O)[C@@H](O[C@H]8[C@H](O)[C@@H](O)[C@@H](O[C@H]1[C@H](O)[C@H]2O)O[C@@H]8CO)O[C@@H]7CO)O[C@@H]6CO)O[C@@H]5CO)O[C@@H]4CO)O[C@@H]3CO` [β-CD, β-Cyclodextrin]: in data set [2] (tested range up to maximum concentration 1645 ppm (1.45 mM) β-CD), the “toxicity of β-CD alone” value is on record as “No discernible toxicity”. Also, the “effect on PFOA binding to HSA, steady state fluorescence” value in data set [6] (10 μM HSA titrated with PFOA, 1:1 and 2:1 β-CD:PFOA ratios) is “cannot completely reverse the first PFOA binding to HSA”. The “fluorescence intensity and λmax of HSA with PFOA” value in data set [6] (10 μM HSA, 500 μM PFOA, 5:1 β-CD:PFOA ratio (2500 μM β-CD)) is reported as “return to the values observed for HSA in the absence of PFOA”. Besides, the “fluorescence lifetime τ and α values of HSA with PFOA” value in data set [6] (10 μM HSA, 50:1 PFOA:HSA, 5:1 β-CD:PFOA ratio) was “identical to those determined for HSA in the absence of PFOA”.
